These results are taken from publication PMC8389922, “First-in-Class Cyclic Temporin L Analogue: Design, Synthesis, and Antimicrobial Assessment” (Journal of Medicinal Chemistry, 2021).

Converted amounts (≈) assume the structure as drawn. Bridge positions count the residues as written; N and C are the ends. Square brackets hold non-standard residues; d marks the D form. Peptide text beside a SMILES is read from it.

The test system of data set [1] is S. aureus ATCC 25923. In kind it is cell-based, Staphylococcus aureus. How it is done:
(§1) The antimicrobial activity of peptides 9–26 was assessed against a range of reference bacterial strains such as S. aureus ATCC 25923, Staphylococcus epidermidis ATCC 12228, Bacillus megaterium Bm11, E. coli ATCC 25922, P. aeruginosa ATCC 27853, and A. baumannii ATCC 19606 by the broth microdilution assay to determine the minimal growth inhibitory concentration (MIC, Table 1).[59] First, we evaluated the effects produced by the lactam bridge between Lys and Glu residues placed at different positions along the peptide sequence of reference 9. […] When the i,i+7 cyclization strategy was applied (20–23), a dramatic decrease of bacterial inhibition activity was observed. Specifically, the peptides 20, 22, and 23 only affected the microbial growth of the Gram-positive B. megaterium Bm11, at 12.5 μM. […] Peptide 25, which differs from 9 by the presence of an olefin bridge rather than lactam one, dramatically lost the activity (MIC > 100 μM) vs both Gram-positive and Gram-negative strains.
(§2) The determination of MICs was conducted as previously reported.[61] Aliquots of 50 μL of bacterial culture appropriately diluted were added to each well of a 96-well plate to reach a final cell density of 1 × 10^6 CFU/mL and a final peptide concentration ranging from 100 to 0.78 μM (final volume 100 μL).

Data set [2] is described as follows: circular dichroism. Conditions: water; pH ns; 25 °C; 50 uM. (In general: Circular dichroism is the unequal absorption of left and right circularly polarised light.)
The subject of data set [3] is S. epidermidis ATCC 12228. In kind it is cell-based, Staphylococcus epidermidis. The method, then:
as §1, §2

Data set [4] has as its system A. baumannii ATCC 19606. The data set is classed as cell-based, Acinetobacter baumannii. The method, then: as §1, §2
For data set [5], the system named is B. megaterium Bm11. The data set is classed as cell-based, Bacillus megaterium. How it is done: as §1, §2
Data set [6] has as its system P. aeruginosa ATCC 27853. In kind it is cell-based, Pseudomonas aeruginosa. The method, then: as §1, §2
The subject of data set [7] is E. coli ATCC 25922. The data set is classed as cell-based, Escherichia coli. The method, then:
as §1, §2

The nature of data set [8]: CD spectroscopy, secondary structure content (DichroWeb). The data set is classed as physicochemical. As to conditions: peptide 50 μM, 25 °C. The method, then:
The secondary structures of the linear peptide 9 and its stapled analogues 12, 17, and 24–26 were explored by circular dichroism (CD). CD spectroscopy studies were performed in water, and SDS or DPC micelles (20 mM) were used as mimics of the bacterial or mammalian membranes, respectively.[60]
The secondary structure content was predicted based on the CD spectra from 190 to 260 nm using the online server for protein secondary structure analyses, DichroWeb.[61] […] The hydrocarbon-bridged peptide 25 was slightly helical and structured in water, with weak ellipticity at 220 nm. Peptide 25 contains ∼13% regular helix and ∼10% distorted helix, according to the DichroWeb prediction.
All spectra were measured in the 260–190 nm spectral range, 1 nm bandwidth, 4 accumulations, and 100 nm/min scanning speed.[60] Each peptide was dissolved in water to prepare a 1 mM peptide stock solution. The CD spectra were performed in water, in SDS (20 mM) and in DPC (20 mM) using a peptide concentration of 50 μM. The secondary structure content of the peptides was predicted using the online server for protein secondary structure analyses DichroWeb.[61] Input and output units and the wavelength step were θ (mdeg) and 1.0 nm, respectively. The algorithm used was CONTIN-LL,[83] and reference database was set-7. When we have NRMSD > 0.100, we used the CDSSTR method.[83]

Where [9] appears, read: CD in DPC micelles (20 mM), DichroWeb.
[10] abbreviates: CD in SDS micelles (20 mM), DichroWeb.

Consider `CC[C@H](C)[C@H](NC(=O)[C@H](CCCNC(=N)N)NC(=O)[C@@H]1CSSC[C@H](NC(=O)[C@H](Cc2ccccc2)NC(=O)[C@H](Cc2c[nH]c3ccccc23)NC(=O)[C@@H]2CCCN2C(=O)[C@@H](NC(=O)[C@@H](N)Cc2ccccc2)C(C)C)C(=O)N[C@@H](CCCCN)C(=O)N[C@@H](Cc2ccccc2)C(=O)N[C@H](CC(C)C)C(=O)N1)C(=O)N[C@@H](CC(C)C)C(N)=O` [compound 26] (H-FVPWFCKF[dL]CRIL-NH2; disulfide 6-10), for which the “MIC S. aureus ATCC 25923” value in data set [1] is 100 µM (≈ 167 µg/mL). The molecule also registered a helicity in data set [2] of 8%. In addition, the “MIC S. epidermidis ATCC 12228” value in data set [3] came to 6.25 µM (≈ 10.4 µg/mL). Besides, the “MIC A. baumannii ATCC 19606” value in data set [4] was 25 µM (≈ 41.7 µg/mL). In addition, the “MIC B. megaterium Bm11” value in data set [5] stood at 1.56 µM (≈ 2.6 µg/mL). Moreover, the “MIC P. aeruginosa ATCC 27853” value in data set [6] was over 100 µM. Moreover, the “MIC E. coli ATCC 25922” value in data set [7] came out at 25 µM (≈ 41.7 µg/mL).
Take `CC[C@H](C)[C@H](NC(=O)[C@H](CCCNC(=N)N)NC(=O)[C@]1(C)CCCC=CCCC[C@](C)(NC(=O)[C@H](Cc2ccccc2)NC(=O)[C@H](Cc2c[nH]c3ccccc23)NC(=O)[C@@H]2CCCN2C(=O)[C@@H](NC(=O)[C@@H](N)Cc2ccccc2)C(C)C)C(=O)N[C@@H](CCCCN)C(=O)N[C@@H](Cc2ccccc2)C(=O)N[C@H](CC(C)C)C(=O)N1)C(=O)N[C@@H](CC(C)C)C(N)=O` [compound 25]: in data set [1], the “MIC S. aureus ATCC 25923” value was over 100 µM. Also, the helicity in data set [2] amounted to 23%. In addition, the “MIC S. epidermidis ATCC 12228” value in data set [3] is over 100 µM. Further, in data set [8] (setting [9]), the “helix-1 (regular α-helix)” value amounted to 54%, the “helix-2 (distorted α-helix)” value is listed as 34%, the random is reported as 0% and the “β-strand-1 (regular β-strand)” value is given as 0%. Also, in data set [8] (setting [9]), the “β-strand-2 (distorted β-strand)” value is reported as 7% and the β-turn is 5%. In data set [8] (setting [10]), the “helix-1 (regular α-helix)” value amounted to 41%, the “helix-2 (distorted α-helix)” value was 22%, the random is listed as 28% and the “β-strand-1 (regular β-strand)” value was 0%. Also, in data set [8] (setting [10]), the “β-strand-2 (distorted β-strand)” value amounted to 4% and the β-turn stood at 5%. Further, the “aggregation in water (shape of CD spectrum)” value in data set [8] (CD in water) is reported as “form α-helical aggregates”. Also, in data set [8] (CD in water, DichroWeb), the “helix-2 (distorted α-helix)” value worked out at 10%, the random is recorded as 41%, the “β-strand-1 (regular β-strand)” value is reported as 12% and the “β-strand-2 (distorted β-strand)” value turned out to be 8%. The β-turn in data set [8] (CD in water, DichroWeb) amounted to 16%. The “helix-1 (regular α-helix)” value in data set [8] (CD in water, DichroWeb (CONTIN-LL, set-7; CDSSTR if NRMSD > 0.100)) came out at 13%. The “MIC A. baumannii ATCC 19606” value in data set [4] is over 100 µM. The “MIC B. megaterium Bm11” value in data set [5] turned out to be 100 µM (≈ 172 µg/mL). For the same molecule, the “MIC P. aeruginosa ATCC 27853” value in data set [6] was over 100 µM. The “MIC E. coli ATCC 25922” value in data set [7] is over 100 µM.
With `CC[C@H](C)[C@H](NC(=O)[C@H](CCCNC(=N)N)NC(=O)[C@@H]1CCCCn2cc(nn2)C[C@H](NC(=O)[C@H](Cc2ccccc2)NC(=O)[C@H](Cc2c[nH]c3ccccc23)NC(=O)[C@@H]2CCCN2C(=O)[C@@H](NC(=O)[C@@H](N)Cc2ccccc2)C(C)C)C(=O)N[C@@H](CCCCN)C(=O)N[C@@H](Cc2ccccc2)C(=O)N[C@H](CC(C)C)C(=O)N1)C(=O)N[C@@H](CC(C)C)C(N)=O`, the helicity in data set [2] worked out at 6%.
Take `CC[C@H](C)[C@@H]1NC(=O)[C@H](CCCNC(=N)N)NC(=O)CNC(=O)[C@H](NC(=O)[C@H](Cc2ccccc2)NC(=O)[C@H](CCCCN)NC(=O)[C@H](CO)NC(=O)[C@H](Cc2ccccc2)NC(=O)[C@H](Cc2c[nH]c3ccccc23)NC(=O)[C@@H]2CCCN2C(=O)[C@@H](NC(=O)[C@@H](N)Cc2ccccc2)C(C)C)CCCCNC(=O)CC[C@@H](C(N)=O)NC1=O` [compound 10]: in data set [1], the “MIC S. aureus ATCC 25923” value was over 100 µM. Moreover, the “MIC S. epidermidis ATCC 12228” value in data set [3] was over 100 µM. For the same molecule, the “MIC A. baumannii ATCC 19606” value in data set [4] is over 100 µM. Moreover, in data set [5], the “MIC B. megaterium Bm11” value was determined as 50 µM (≈ 81.1 µg/mL). Moreover, the “MIC P. aeruginosa ATCC 27853” value in data set [6] was over 100 µM. For the same molecule, the “MIC E. coli ATCC 25922” value in data set [7] is over 100 µM.
For `CC(C)C[C@H](NC(=O)[C@@H]1CCC(=O)NCCCC[C@H](NC(=O)[C@H](CCCCN)NC(=O)[C@H](CO)NC(=O)[C@H](Cc2ccccc2)NC(=O)[C@H](Cc2c[nH]c3ccccc23)NC(=O)[C@@H]2CCCN2C(=O)[C@@H](NC(=O)[C@@H](N)Cc2ccccc2)C(C)C)C(=O)N[C@H](CC(C)C)C(=O)NCC(=O)N[C@@H](CCCNC(=N)N)C(=O)N1)C(N)=O` [compound 11] (H-FVPWFSKK[dL]GREL-NH2; lactam 8-12), in data set [1], the “MIC S. aureus ATCC 25923” value was over 100 µM. In addition, in data set [3], the “MIC S. epidermidis ATCC 12228” value is over 100 µM. The “MIC A. baumannii ATCC 19606” value in data set [4] is over 100 µM. In data set [5], the “MIC B. megaterium Bm11” value is 50 µM (≈ 79.4 µg/mL). The “MIC P. aeruginosa ATCC 27853” value in data set [6] is over 100 µM. The “MIC E. coli ATCC 25922” value in data set [7] is over 100 µM.
